# pIC50: −log10 of the molar value.
# Key:
# [1] = Cytotoxicity against human MT4 cells expressing CD4 and CXCR4 assessed as cell viability; type: cell-based
# [2] = test system: Human immunodeficiency virus 1; experiment: Antiviral activity against X4 tropic HIV1 NL4.3 infected in CD4 and CXCR4 expressing human MT4 cells assessed as inhibition of viral cytopathicity; type: functional, organism-based; settings: Human immunodeficiency virus 1, NL4.3, MT4
# [3] = Cmax in rat; type: ADME, organism-based; settings: in vivo
# [4] = test system: Human immunodeficiency virus 1; experiment: Antiviral activity against X4 tropic HIV1 NL4.3 infected in human PBMC assessed as inhibition of viral cytopathicity; type: functional, organism-based; settings: Human immunodeficiency virus 1, NL4.3
# [5] = AUC (0 to infinity) in dog; type: ADME, organism-based, Canis lupus familiaris; parameters: time infinity; concentration or dose not given beside the values; settings: plasma
# [6] = test system: Human immunodeficiency virus 1; experiment: Antiviral activity against X4 tropic HIV1 NL4.3 infected in human PBMC assessed as inhibition of viral cytopathicity in presence of 1 mg/ml of alpha-acid glycoprotein; type: functional
# [7] = AUC (0 to infinity) in rat; type: ADME, organism-based; parameters: time infinity; concentration or dose not given beside the values; settings: plasma
# [8] = molecular target: T1, C-X-C chemokine receptor type 4 (Homo sapiens, UniProt P61073); experiment: Antagonist activity at CXCR4 in human CEM-CCRF cells assessed as inhibition of SDF-1-induced calcium signaling; type: functional, cell-based
# [9] = Half life in rat at 10 umol/kg, iv; type: ADME, organism-based; settings: in vivo
# [10] = Clearance in rat at 10 umol/kg, iv; type: ADME, organism-based; settings: in vivo
# [11] = Cmax in dog; type: ADME, organism-based, Canis lupus familiaris; settings: in vivo
# [12] = Clearance in dog at 5 umol/kg, iv; type: ADME, organism-based, Canis lupus familiaris; settings: in vivo
# [13] = Oral bioavailability in rat at 100 umol/kg, […]; type: ADME, organism-based; settings: in vivo
# [14] = molecular target: T1, C-X-C chemokine receptor type 4; experiment: Displacement of [125I]SDF-1alpha from CXCR4 in human CEM-CCRF cells by liquid scintillation counting; type: cell-based
# [15] = Volume of distribution at steady state in dog at 5 umol/kg, iv; type: ADME, organism-based, Canis lupus familiaris; settings: in vivo, read-out: Vdss
# [16] = Volume of distribution at steady state in rat at 10 umol/kg, iv; type: ADME, organism-based; settings: in vivo, read-out: Vdss
# [17] = Half life in dog at 5 umol/kg, iv; type: ADME, organism-based, Canis lupus familiaris; settings: in vivo
# [18] = Oral bioavailability in dog at 12.5 umol/kg; type: ADME, organism-based, Canis lupus familiaris; settings: in vivo
# T1 sequence (P61073 whole entry): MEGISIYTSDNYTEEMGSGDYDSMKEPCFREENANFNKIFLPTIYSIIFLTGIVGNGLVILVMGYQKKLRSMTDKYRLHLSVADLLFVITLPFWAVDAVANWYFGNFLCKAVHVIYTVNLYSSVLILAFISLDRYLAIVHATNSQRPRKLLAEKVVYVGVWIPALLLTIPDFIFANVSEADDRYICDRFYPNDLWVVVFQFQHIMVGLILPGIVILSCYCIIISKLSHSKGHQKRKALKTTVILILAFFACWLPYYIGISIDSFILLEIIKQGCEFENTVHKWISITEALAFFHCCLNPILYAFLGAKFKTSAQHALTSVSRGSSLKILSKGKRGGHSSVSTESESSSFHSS
pIC50 [2],Compound,CC50 [1] [nM],also measured
8.42,Cc1ccc(C(C)N(CCCCN)Cc2nc3ccccc3[nH]2)nc1 (stereo not given),> 146000,
7.39,NCCCCN(Cc1ccccn1)Cc1nc2ccccc2[nH]1,151000,
7.47,CC(C)c1cccnc1CN(CCCCN)Cc1nc2ccccc2[nH]1,145000,
6.95,NCCCCN(Cc1ncccc1O)C1CCCc2cccnc21 (racemic),149000,
7.74,CC(c1ccccn1)N(CCCCN)Cc1ncccc1N (racemic),167000,pIC50 [8]: 7.14
7.74,CC(c1ccccn1)N(CCCCN)Cc1nc2ccccc2[nH]1 (stereo not given),> 161000,
7.41,CC(c1ccccn1)N(CCCCN)Cc1ncccc1C(F)(F)F (racemic),> 155000,pIC50 [8]: 6.95
7.82,Cc1cccc(CN(CCCCN)C(C)c2ccccn2)n1 (racemic),> 145000,pIC50 [8]: 6.74
5.60,CC(C)(c1ccccn1)N(CCCCN)Cc1nc2ccccc2[nH]1,> 159000,
9.20,Cc1cnc(CN(CCCCN)C2CCCc3cccnc32)c(C)c1 (racemic),32600,pIC50 [8]: 7.72
8.08,CC(C)c1cccnc1CN(CCCCN)C1CCCc2cccnc21 (racemic),33800,
8.96,Cc1cccnc1CN(CCCCN)C(C)c1ccccn1 (stereo not given),45400,
7.77,Cc1cc(C)nc(CN(CCCCN)C2CCCc3cccnc32)c1 (racemic),149000,
7.32,Cc1ccc(CN(CCCCN)C(C)c2ccccn2)nc1 (racemic),158000,
8.54,Cc1cccc(CN(CCCCN)C2CCCc3cccnc32)n1 (racemic),299000,
5.64,CC(c1cccc(N)n1)N(CCCCN)Cc1nc2ccccc2[nH]1 (stereo not given),> 149000,
< 3.83,NCCCCN(Cc1nc2ccccc2[nH]1)Cc1ncccc1O,> 149000,
7.32,Cc1ccnc(CN(CCCCN)C2CCCc3cccnc32)c1 (racemic),36900,
8.32,NCCCCN(Cc1nc2ccccc2[nH]1)[C@H]1CCCc2cccnc21 [MAVORIXAFOR],,
6.36,Cc1ccnc(C(C)N(CCCCN)Cc2nc3ccccc3[nH]2)c1 (stereo not given),> 142000,
9.40,NCCCCN(Cc1ncccc1Cl)C1CCCc2cccnc21 (stereo not given),191000,
9.52,Cc1ccnc(C(C)N(CCCCN)Cc2ncccc2C)c1 (racemic),138000,
7.52,NCCCCN(Cc1cccc(N)n1)C1CCCc2cccnc21 (racemic),158000,
4.79,CC(C)C(c1ccccn1)N(CCCCN)Cc1nc2ccccc2[nH]1 (stereo not given),> 162000,
5.39,Cc1cccc(C(C)N(CCCCN)Cc2nc3ccccc3[nH]2)n1 (stereo not given),> 167000,

# More lines, now with the values behind:
Compound,pIC50 [2],CC50 [1] [nM],also measured
CC(c1ccccn1)N(CCCCN)Cc1ncccc1C(C)(C)C (racemic),8.80,158000,
Cc1cccnc1CN(CCCCN)[C@@H](C)c1ccccn1,8.96,,Cmax [3]: 1580 nM; pIC50 [4]: 8.68; AUC(0-inf) [5]: 7.49 µM·h; fold change (FC) [6]: 14.2; AUC(0-inf) [7]: 11.2 µM·h
Cc1cnc(CN(CCCCN)C(C)c2ccccn2)c(C)c1 (racemic),8.74,163000,pIC50 [8]: 7.70
Cc1cccnc1CN(CCCCN)C1CCCc2cccnc21 (racemic),7.63,32400,
Cc1cccnc1C(C)N(CCCCN)Cc1nc2ccccc2[nH]1 (stereo not given),6.30,> 146000,
Cc1cnc(CN(CCCCN)[C@H]2CCCc3cccnc32)c(C)c1,8.11,,half-life [9]: 10.5 h; clearance [10]: 31.7 mL/min/kg; Cmax [11]: 7160 nM; clearance [12]: 3.3 mL/min/kg; Cmax [3]: 2700 nM; bioavailability [13]: 42%; pIC50 [14]: 7.20; Vd [15]: 8.7 L/kg; pIC50 [4]: 8.44; AUC(0-inf) [5]: 22.1 µM·h; fold change (FC) [6]: 2.8; AUC(0-inf) [7]: 20.7 µM·h; Vd [16]: 28.5 L/kg; half-life [17]: 39.6 h; bioavailability [18]: 51%
C[C@@H](c1ccccn1)N(CCCCN)Cc1nc2ccccc2[nH]1,8.85,,Cmax [11]: 1330 nM; Cmax [3]: 180 nM; pIC50 [4]: 8.70; AUC(0-inf) [5]: 1.7 µM·h; fold change (FC) [6]: 5.4; AUC(0-inf) [7]: 0.33 µM·h
NCCCCN(Cc1ccccn1)C1CCCc2cccnc21 (racemic),7.82,165000,
NCCCCN(Cc1nc2ccccc2[nH]1)C(c1ccccc1)c1ccccn1 (stereo not given),4.88,> 148000,
Cc1cccc(CN(CCCCN)[C@H]2CCCc3cccnc32)n1,8.62,,Cmax [11]: 2060 nM; Cmax [3]: 1460 nM; pIC50 [4]: 7.80; AUC(0-inf) [5]: 7.75 µM·h; fold change (FC) [6]: 0.6; AUC(0-inf) [7]: 8.75 µM·h
NCCCCN(Cc1ncccc1N)[C@H]1CCCc2cccnc21,8.80,,Cmax [11]: 7740 nM; Cmax [3]: 1660 nM; pIC50 [4]: 8.68; AUC(0-inf) [5]: 21.2 µM·h; fold change (FC) [6]: 4.3; AUC(0-inf) [7]: 8.73 µM·h
COCc1cccc(CN(CCCCN)C2CCCc3cccnc32)n1 (racemic),6.26,> 154000,
CCC(c1ccccn1)N(CCCCN)Cc1nc2ccccc2[nH]1 (stereo not given),6.06,> 162000,
NCCCCN(Cc1ncccc1N)C1CCCc2cccnc21 (racemic),7.71,169000,
Cc1ccc(CN(CCCCN)C2CCCc3cccnc32)nc1 (racemic),8.28,35300,pIC50 [8]: 7.46
NCCCCN(Cc1ncccc1CO)C1CCCc2cccnc21 (racemic),8.68,155000,

# From ChEMBL document CHEMBL1681661, “Design of novel CXCR4 antagonists that are potent inhibitors of T-tropic (X4) HIV-1 replication” (Bioorg Med Chem Lett, 2011)
